Experimental data from patent US8232270B2, “Bivalent (−)-meptazinol compounds and/or their salts, and their preparation and futilization” (priority 2006, dated 2012).
Counter-ions that a name gives are not always drawn.

molecular target: T1, mice brain AChE (Mus musculus, UniProt P21836); test: not given; conditions: background statement; cited from earlier work
T1 construct: Mice brain homogenate prepared in saline was used as a source of AChE; from tissue; host or cells: mouse brain homogenate
T1 sequence (P21836 32-614): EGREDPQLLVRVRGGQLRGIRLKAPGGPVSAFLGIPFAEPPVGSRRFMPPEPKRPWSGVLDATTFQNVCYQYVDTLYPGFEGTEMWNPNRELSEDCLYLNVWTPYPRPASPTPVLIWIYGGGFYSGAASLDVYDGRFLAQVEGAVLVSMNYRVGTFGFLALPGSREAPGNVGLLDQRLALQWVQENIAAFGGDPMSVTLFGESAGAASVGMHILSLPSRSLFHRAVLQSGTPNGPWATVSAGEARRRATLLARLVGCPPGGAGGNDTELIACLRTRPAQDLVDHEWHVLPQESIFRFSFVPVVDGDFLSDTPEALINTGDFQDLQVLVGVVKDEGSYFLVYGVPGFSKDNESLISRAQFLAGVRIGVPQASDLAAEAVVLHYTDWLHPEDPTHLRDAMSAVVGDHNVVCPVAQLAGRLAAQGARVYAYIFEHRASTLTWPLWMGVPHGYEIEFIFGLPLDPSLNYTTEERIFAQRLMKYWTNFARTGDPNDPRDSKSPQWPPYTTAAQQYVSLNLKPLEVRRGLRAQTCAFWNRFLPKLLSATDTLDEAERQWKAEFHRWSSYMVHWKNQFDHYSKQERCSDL

In the case of CCC1(c2cccc(O)c2)CCCCN(C)C1 (single isomer, unassigned; (-)) [(−)-meptazinol], the “mice brain AChE inhibition test, result in words” value is given as “potent AChE inhibitor”.

molecular target: T2, mice serum BChE (Mus musculus, UniProt Q03311); test: BChE inhibition, Ellman spectrophotometric assay, mice serum; assay type: biochemical; conditions: mean ± SEM, at least three measures; butyrylthiocholine iodide substrate
T2 construct: mice serum was the source of BChE; from tissue; host or cells: mouse serum
T2 sequence (Q03311 30-603): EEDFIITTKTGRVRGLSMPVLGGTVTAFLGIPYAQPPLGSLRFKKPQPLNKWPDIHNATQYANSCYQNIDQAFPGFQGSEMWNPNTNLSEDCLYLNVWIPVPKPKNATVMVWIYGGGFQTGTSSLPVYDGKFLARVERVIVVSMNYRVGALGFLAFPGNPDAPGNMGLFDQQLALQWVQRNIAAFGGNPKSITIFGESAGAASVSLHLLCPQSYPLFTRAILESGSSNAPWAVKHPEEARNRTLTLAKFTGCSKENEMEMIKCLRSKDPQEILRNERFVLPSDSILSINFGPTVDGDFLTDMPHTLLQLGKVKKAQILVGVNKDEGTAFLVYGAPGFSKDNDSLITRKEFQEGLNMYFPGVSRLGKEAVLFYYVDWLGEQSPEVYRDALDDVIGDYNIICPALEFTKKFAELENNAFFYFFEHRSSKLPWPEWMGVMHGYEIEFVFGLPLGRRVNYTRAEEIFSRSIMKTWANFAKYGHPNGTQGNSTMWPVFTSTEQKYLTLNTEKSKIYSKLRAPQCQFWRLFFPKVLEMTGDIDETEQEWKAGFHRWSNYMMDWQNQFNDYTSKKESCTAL
Experimental: (§1) AChE inhibiting activities were measured by a spectrophotometric assay developed by Ellman et al. It was based on the fact that AChE catalyzes the hydrolysis of acetylcholine, releasing choline and acetic acid. In this assay, acetylthiocholine (AChSC) is hydrolyzed by the enzyme, releasing thiocholine containing a sulfhydrylic group able to react with color indicating reagent. Yellowish products were measured spectrophotometrically, the amount of which reflects the activity of AChE. All the procedures were operated according to the instruction of the AChE reagent kit produced by Nanjing Jiancheng Bio-engineering Institute. Mice brain homogenate prepared in saline was used as a source of AChE; mice serum was the source of BChE.
The AChE activity was determined in a reaction mixture containing 200 μL of a solution of AChE (0.415 U/mL in 0.1 M phosphate buffer, pH 8.0), 300 μL of a solution of 5,5′-dithio-bis(2-nitrobenzoic) acid (3.3 mM DTNB in 0.1 M phosphate buffered solution, pH 7.0, containing NaHCO3 6 mM), and 30 μL of a solution of the inhibitor (six to seven concentrations). After incubation for 20 min at 37° C., acetylthiocholine iodide (300 μL of 0.05 mM water solution) was added as the substrate, and AChE activity was determined by UV spectrophotometry from the absorbance changes at […] for 3 min at 25° C. […] BChE inhibitory activity determinations were similarly carried out using butyrylthiocholine iodide (0.05 mM) as the substrate. Results are reported as the means ±SEM of IC50 obtained from at least three independent measures.

Going from CCC1(c2cccc(O)c2)CCCCN(C)C1 (single isomer, unassigned; (-)) [(−)-meptazinol] to CC[C@@]1(c2cccc(O)c2)CCCCN(CCN2CCCC[C@@](CC)(c3cccc(O)c3)C2)C1 [(A = CH2, n = 2)], the IC50 falls from 15000 ± 4000 nM to 125 ± 9 nM (120-fold). The second is the more potent here.

CC[C@@]1(c2cccc(O)c2)CCCCN(CCCN2CCCC[C@@](CC)(c3cccc(O)c3)C2)C1 [(A = CH2, n = 3)] and CC[C@@]1(c2cccc(O)c2)CCCCN(CCCCN2CCCC[C@@](CC)(c3cccc(O)c3)C2)C1 [(A = CH2, n = 4), N,N′-(1′,4′-Butylene)-bis-(−)-nor-MEP Hydrochloride] are within error of each other in IC50: 132 ± 51 nM for the first, 104 ± 29 nM for the second.

First: CC[C@@]1(c2cccc(O)c2)CCCCN(CCCCCN2CCCC[C@@](CC)(c3cccc(O)c3)C2)C1 [(A = CH2, n = 5)]
Second: CC[C@@]1(c2cccc(O)c2)CCCCN(CCCCCCN2CCCC[C@@](CC)(c3cccc(O)c3)C2)C1 [(A = CH2, n = 6)]
The IC50 of the first is 1.6-fold higher: 192 ± 41 nM for the first, 119 ± 20 nM for the second.

molecular target: T3, AChE-induced Aβ (1-40) aggregation (human recombinant AChE) (Homo sapiens, UniProt P22303); test: Inhibition of AChE-induced Aβ aggregation, thioflavin T fluorescence; assay type: biochemical; conditions: inhibitor 400 μM; Aβ 230 μM, AChE 2.3 μM, 48 h
T3 construct: purchased Sigma-Aldrich
T3 sequence (P22303 32-614): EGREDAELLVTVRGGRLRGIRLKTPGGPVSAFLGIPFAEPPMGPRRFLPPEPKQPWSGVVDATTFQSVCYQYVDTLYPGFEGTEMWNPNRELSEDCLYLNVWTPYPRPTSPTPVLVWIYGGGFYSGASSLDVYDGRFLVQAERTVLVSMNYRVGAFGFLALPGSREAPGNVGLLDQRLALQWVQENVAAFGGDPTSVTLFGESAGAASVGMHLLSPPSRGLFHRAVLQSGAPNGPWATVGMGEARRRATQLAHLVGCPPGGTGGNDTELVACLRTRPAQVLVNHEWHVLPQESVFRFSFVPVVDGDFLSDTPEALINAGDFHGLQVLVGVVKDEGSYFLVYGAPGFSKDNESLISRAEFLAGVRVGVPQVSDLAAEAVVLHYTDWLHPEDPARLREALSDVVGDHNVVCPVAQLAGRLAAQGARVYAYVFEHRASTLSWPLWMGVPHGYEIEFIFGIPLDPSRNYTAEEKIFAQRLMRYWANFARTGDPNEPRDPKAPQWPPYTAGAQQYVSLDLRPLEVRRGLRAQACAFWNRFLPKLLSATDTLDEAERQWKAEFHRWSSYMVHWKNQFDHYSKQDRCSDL
Experimental: Aliquots of 2 μL Aβ (1-40) peptide (Biosource), lyophilized from 2 mg/mL HFIP solution and dissolved in DMSO, were incubated for 48 h at room temperature in 0.215 M sodium phosphate buffer (pH 8.0) at a concentration of 230 μM. For coincubation experiments, aliquots (16 μL) of human recombinant AChE (Sigma-Aldrich) (final concentration of 2.3 μM) and AChE in the presence of 2 μL of the tested inhibitors were added. Each assay was run in duplicate. To quantify amyloid fibril formation, the thioflavin T fluorescence method was then applied.
Fluorescence was monitored with excitation at 446 nm and emission at 490 nm. The percent inhibition of the AChE-induced aggregation due to the presence of increasing concentrations of the inhibitor was calculated by the following expression: 100−(IFi/IFo×100), where IFi and IFo were the fluorescence intensities obtained for Aβ plus AChE in the presence and in the absence of inhibitor, respectively, after subtracting the fluorescence of respective blanks. Inhibition curves and linear regression parameters were obtained for each compound, and the IC50 was extrapolated.

For CCC1(c2cccc(O)c2)CCCCN(C)C1 (single isomer, unassigned; (-)) [(−)-meptazinol], the “Inhibition (%) 400 μM ± SEM” value was 0%.

molecular target: T1, mice brain AChE; test: AChE inhibition, Ellman spectrophotometric assay, mice brain homogenate; assay type: biochemical; conditions: mean ± SEM, at least three measures; hydrochlorides; 20 min preincubation at 37° C.
Experimental: as §1
After incubation for 20 min at 37° C., acetylthiocholine iodide (300 μL of 0.05 mM water solution) was added as the substrate, and AChE activity was determined by UV spectrophotometry from the absorbance changes at […] for 3 min at 25° C. […] BChE inhibitory activity determinations were similarly carried out using butyrylthiocholine iodide (0.05 mM) as the substrate. Results are reported as the means ±SEM of IC50 obtained from at least three independent measures.

CCC1(c2cccc(O)c2)CCCCN(C)C1 (single isomer, unassigned; (-)) [(−)-meptazinol] and CC[C@@]1(c2cccc(O)c2)CCCCN(CCN2CCCC[C@@](CC)(c3cccc(O)c3)C2)C1 [(A = CH2, n = 2)] are within error of each other in IC50: 41000 ± 14000 nM for the first, 43000 ± 20000 nM for the second.

CC[C@@]1(c2cccc(O)c2)CCCCN(CCCN2CCCC[C@@](CC)(c3cccc(O)c3)C2)C1 [(A = CH2, n = 3)] and CC[C@@]1(c2cccc(O)c2)CCCCN(CCCCN2CCCC[C@@](CC)(c3cccc(O)c3)C2)C1 [(A = CH2, n = 4), N,N′-(1′,4′-Butylene)-bis-(−)-nor-MEP Hydrochloride] are within error of each other in IC50: 42000 ± 14000 nM for the first, 21400 ± 7600 nM for the second.

Compared with CC[C@@]1(c2cccc(O)c2)CCCCN(CCCCCN2CCCC[C@@](CC)(c3cccc(O)c3)C2)C1 [(A = CH2, n = 5)], CC[C@@]1(c2cccc(O)c2)CCCCN(CCCCCCN2CCCC[C@@](CC)(c3cccc(O)c3)C2)C1 [(A = CH2, n = 6)] is 3.3-fold lower in IC50: 4000 ± 1000 nM for the first, 1220 ± 20 nM for the second.

same assay, conditions: mice serum BChE versus mice brain AChE IC50

Compared with CCC1(c2cccc(O)c2)CCCCN(C)C1 (single isomer, unassigned; (-)) [(−)-meptazinol], CC[C@@]1(c2cccc(O)c2)CCCCN(CCN2CCCC[C@@](CC)(c3cccc(O)c3)C2)C1 [(A = CH2, n = 2)] is lower in AChE selectivity: 0.37 for the first, 0.0029 for the second.

Compared with CC[C@@]1(c2cccc(O)c2)CCCCN(CCCN2CCCC[C@@](CC)(c3cccc(O)c3)C2)C1 [(A = CH2, n = 3)], CC[C@@]1(c2cccc(O)c2)CCCCN(CCCCN2CCCC[C@@](CC)(c3cccc(O)c3)C2)C1 [(A = CH2, n = 4), N,N′-(1′,4′-Butylene)-bis-(−)-nor-MEP Hydrochloride] is higher in AChE selectivity: 0.0031 for the first, 0.0049 for the second.

Compared with CC[C@@]1(c2cccc(O)c2)CCCCN(CCCCCN2CCCC[C@@](CC)(c3cccc(O)c3)C2)C1 [(A = CH2, n = 5)], CC[C@@]1(c2cccc(O)c2)CCCCN(CCCCCCN2CCCC[C@@](CC)(c3cccc(O)c3)C2)C1 [(A = CH2, n = 6)] is higher in AChE selectivity: 0.048 for the first, 0.098 for the second.
